Assay results reported in ChEMBL document CHEMBL5143716, “Design, Synthesis, and Optimization of Macrocyclic Peptides as Species-Selective Antimalaria Proteasome Inhibitors” (J Med Chem, 2022).
In brackets after ≈: the same amount, converted by molar mass.

Columns and labels:
[1] = Permeability of the compound in PRISMA HT buffer at pH 7.4 at 10 uM incubated for 3 hrs by PAMPA based LC/MS/MS analysis; type: ADME; conditions: read-out: permeability
human MDR1 (P-gp) = test: Apparent permeability across apical to basolateral side in pig LLC-PK1 cells expressing human MDR1 at 10 uM measured after 60 mins by LC/MS/MS analysis; type: ADME, cell-based, Sus scrofa
[2] = Kinetic solubility of compound in PBS at pH 6.8 incubated for 24 hrs by UPLC/MS analysis; type: physicochemical; conditions: read-out: Kinetic_solubility
[3] = AUC in mouse at […], iv administered as cassette dose; type: ADME, organism-based; parameters: dose 0.25 mg/kg, route iv; conditions: in vivo
[4] = Hepatic blood flow in mouse at […], iv administered as cassette dose; type: ADME, organism-based; conditions: in vivo, dose 0.25 mg/kg

Papp at 3 h, 10 µM [1] [×10⁻⁶ cm/s] | Papp A→B at 1 h, 10 µM (human MDR1 (P-gp)) [×10⁻⁶ cm/s] | solubility kinetic at 24 h [2] [µg/mL] | AUC [3] [ng·h/mL] | QH [4] [mL/min/kg] | Compound
7.2 | > 1.1 | 35 (≈ 59.9 µM) | – | – | O=C(NCC(F)F)[C@@H]1CCCCOc2cccc(c2)C[C@H](N2CCCC2=O)C(=O)N[C@@H](CCc2ccccc2)C(=O)N1
15.1 | 5.7 | 100 (≈ 170 µM) | – | – | O=C(NC1CCCC1)[C@@H]1CCCCOc2cccc(c2)C[C@H](N2CCCC2=O)C(=O)N[C@@H](CCc2ccccc2)C(=O)N1
10.3 | 6.8 | 49 (≈ 85.3 µM) | – | – | O=C(NCC1CC1)[C@@H]1CCCCOc2cccc(c2)C[C@H](N2CCCC2=O)C(=O)N[C@@H](CCc2ccccc2)C(=O)N1
12 | – | < 130 | – | – | O=C(NCC(F)(F)F)[C@@H]1COCCOc2cccc(c2)C[C@H](N2CCCC2=O)C(=O)N[C@@H](CCc2ccccc2)C(=O)N1
1.1 | > 0.6 | > 120 | – | – | Cn1cc(CNC(=O)[C@@H]2CCCCOc3cccc(c3)C[C@H](N3CCCC3=O)C(=O)N[C@@H](CCc3ccccc3)C(=O)N2)cn1
14.5 | 4.4 | 31 (≈ 49.3 µM) | – | – | O=C(NC1(C(F)(F)F)CC1)[C@@H]1CCCCOc2cccc(c2)C[C@H](N2CCCC2=O)C(=O)N[C@@H](CCc2ccccc2)C(=O)N1
18.7 | 5.3 | 76 (≈ 126 µM) | 0.6 | 93.33 | O=C(NCC(F)(F)F)[C@@H]1CCCCOc2cccc(c2)C[C@H](N2CCCC2=O)C(=O)N[C@@H](CCc2ccccc2)C(=O)N1

The next lines start with the molecule.

Compound | Papp at 3 h, 10 µM [1] [×10⁻⁶ cm/s] | Papp A→B at 1 h, 10 µM (human MDR1 (P-gp)) [×10⁻⁶ cm/s] | solubility kinetic at 24 h [2] [µg/mL] | AUC [3] [ng·h/mL] | QH [4] [mL/min/kg]
O=C1N[C@H](c2nnc(C(F)(F)F)o2)CCCCOc2cccc(c2)C[C@H](N2CCCC2=O)C(=O)N[C@H]1CCc1ccccc1 | 16 | 1.1 | 6.2 (≈ 10.1 µM) | – | –
CC1(C)Cc2cccc(c2)OCCCC[C@@H](C(=O)NC2CCCC2)NC(=O)[C@H](CCN2CCOCC2)NC1=O | 26.9 | 3.5 | 90 (≈ 166 µM) | – | –
O=C(NC1CCCC1)[C@@H]1CCCCOc2cccc(c2)C[C@H](N2CCCC2=O)C(=O)N[C@@H](CCN2CCOCC2)C(=O)N1 | 1.5 | > 0.2 | > 130 | – | –
O=C(NC1CCCC1)[C@@H]1CCCCOc2cccc(c2)C[C@H](N2CCCC2=O)C(=O)N[C@@H](CCN2CCC(F)(F)CC2)C(=O)N1 | 13.3 | 4 | > 130 | – | –
O=C(NC1CCCC1)[C@@H]1CCCCOc2cccc(c2)C[C@H](N2CCCC2=O)C(=O)N[C@@H](COc2ccccc2)C(=O)N1 | 20.8 | – | 20 (≈ 33.9 µM) | – | –
CC(=O)N[C@H]1Cc2cccc(c2)Oc2cccc(c2)C[C@@H](C(=O)NCC(F)(F)F)NC(=O)[C@H](CCc2ccccc2)NC1=O | – | > 0.077 | < 1.4 | – | –
CN(C)[C@H]1Cc2cccc(c2)OCCCC[C@@H](C(=O)NC2CCCC2)NC(=O)[C@H](CCN2CCOCC2)NC1=O | 2 | 0.12 | > 130 | – | –
O=C(NC1CCCC1)[C@@H]1CCCCOc2cccc(c2)C[C@H](N2CCCC2=O)C(=O)N[C@@H](CCc2ccc(F)cc2)C(=O)N1 | 21.2 | 4.5 | 17 (≈ 28 µM) | – | –
O=C(NC1CCCC1)[C@@H]1CCCCOc2cccc(c2)C[C@H](N2CCC2)C(=O)N[C@@H](CCN2CCOCC2)C(=O)N1 | – | > 0.2 | > 140 | – | –
O=C(NCC(F)(F)F)[C@@H]1Cc2cccc(c2)Oc2cccc(c2)C[C@H](N2CCCC2=O)C(=O)N[C@@H](CCc2ccccc2)C(=O)N1 | – | – | 3.8 (≈ 5.97 µM) | – | –
O=C1N[C@H](c2nnc(C(F)(F)F)[nH]2)CCCCOc2cccc(c2)C[C@H](N2CCCC2=O)C(=O)N[C@H]1CCc1ccccc1 | 8.2 | > 2.1 | 2 (≈ 3.26 µM) | – | –
CC(=O)N[C@H]1Cc2cccc(c2)Oc2cccc(c2)C[C@@H](C(=O)NCc2ccc(C)cc2)NC(=O)[C@H](CCc2ccccc2)NC1=O | 2.2 | > 3.4 | – | – | –
Cc1ccc(CNC(=O)[C@@H]2Cc3cccc(c3)Oc3cccc(c3)C[C@H](N)C(=O)N[C@@H](CCc3ccccc3)C(=O)N2)cc1 | – | > 0.29 | < 1.6 | – | –
CN[C@H]1Cc2cccc(c2)OCCCC[C@@H](C(=O)NC2CCCC2)NC(=O)[C@H](CCN2CCOCC2)NC1=O | – | > 0.2 | > 140 | – | –
O=C(NC1CCCC1)[C@@H]1CCCCOc2cccc(c2)CC2(COC2)C(=O)N[C@@H](CCN2CCOCC2)C(=O)N1 | 8.9 | > 2.8 | 68 (≈ 122 µM) | – | –
